Patent US9598412B2, “Spiroindoline compounds for use as anthelminthics” (Intervet, Inc., priority 2010, dated 2017)
Like-named read-outs stand apart in the source and are kept apart here.

System: Haemonchus contortus
Experiment: Efficacy against Haemonchus contortus in jirds
Format: in vivo
Conditions: 72 h, jirds (Meriones unguiculatus), necropsy three days after treatment, read-out: reduction of the Haemonchus contortus count (mean larvae count in stomach vs untreated control group)
Description: Compounds according to this invention (numbers refer to the compound number in Table 1) were tested in vivo using Haemonchus contortus in jirds (Meriones unguiculatus). The jirds were orally infected with approximately 750-3.000 third-stage larvae of Haemonchus contortus. Ten days after infection, the jirds in the treatment groups were treated once either orally or subcutaneously with compounds at a dose of 10 mg or 50 mg per kg bodyweight. Three days after treatment, the jirds were necropsied, and the larvae burden in the stomach was determined. During the study no side-effects in jirds were observed. The efficacy was defined as the reduction of the mean larvae count in the infected jirds of the treatment group in comparison to the infected jirds in an untreated control group (negative control).

[1] = po, treated once orally at 10 mg/kg ten days after infection
[2] = po, treated once orally at 50 mg/kg bw ten days after infection
[3] = sc, treated once subcutaneously at 50 mg/kg bw ten days after infection

SMILES	inhibition in vivo at 10 mg/kg [1] [%]	inhibition in vivo at 50 mg/kg [3] [%]	further results
O=C(c1ccnc(Cl)c1)N1CC2(CCN(C/C=C/c3ccc(Cl)cc3)CC2)c2cc(C(F)(F)F)ccc21 [Compound 42]	≥ 50		
O=C(c1ccnc(Cl)c1)N1CC2(CCN(C/C=C/c3ccc(F)cc3F)CC2)c2cc(C(F)(F)F)ccc21 [Compound 12]			inhibition in vivo at 50 mg/kg [2]: ≥ 50%
O=C(c1ccnc(Cl)c1)N1CC2(CCN(C/C=C/c3ccc(Cl)c(Cl)c3)CC2)c2cc(Cl)ccc21 [Compound 27]		≥ 50	
O=C(c1ccnc(Cl)c1)N1CC2(CCN(C/C=C/c3ccc(F)cc3F)CC2)c2c1ccc(Cl)c2Cl [Compound 20]		≥ 50	
O=C(c1ccnc(Cl)c1)N1CC2(CCN(C/C=C/c3cccc(Cl)c3Cl)CC2)c2cc(Cl)ccc21 [Compound 25, [5-chloro-1′-[(E)-3-(2,3-dichlorophenyl)allyl]spiro[indoline-3,4′-piperidine]-1-yl]-(2-chloro-4-pyridyl)methanone]		≥ 50	
Cc1ccc2c(c1)C1(CCN(C/C=C/c3ccc(Cl)c(Cl)c3)CC1)CN2C(=O)c1ccnc(Cl)c1 [Compound 71]			inhibition in vivo at 10 mg/kg (sc, treated once subcutaneously at 10 mg/kg ten days after infection): ≥ 50%
Cc1ccc2c(c1)C1(CCN(C/C=C/c3ccc(Cl)cc3F)CC1)CN2C(=O)c1ccnc(Cl)c1 [Compound 87]	≥ 50		
O=C(c1ccnc(Cl)c1)N1CC2(CCN(C/C=C/c3ccc(Cl)c(Cl)c3)CC2)c2cc(SC(F)(F)F)ccc21 [Compound 77]	≥ 50		
O=C(c1ccnc(Cl)c1)N1CC2(CCN(C/C=C/c3ccc(F)cc3F)CC2)c2c(Cl)cc(Cl)cc21 [Compound 19]			inhibition in vivo at 50 mg/kg [2]: ≥ 50%
